Laboratory results published in article PMC9241943, “LcCCL28-25, Derived from Piscine Chemokine, Exhibits Antimicrobial Activity against Gram-Negative and Gram-Positive Bacteria In Vitro and In Vivo” (Microbiology Spectrum, 2022).
Residues, ends and D or L forms follow the SMILES beside them.

Assays:
[1] = tested on: S. aureus ATCC 25923 cells; assay: Scanning and transmission electron microscopy; format: cell-based, Staphylococcus aureus; details: S. aureus ATCC 25923, 5 μg/mL, 15 min
Method: E. coli ATCC 25922 and S. aureus ATCC 25923 cells were cultured and coincubated with or without lcCCL28-25 as described above for fluorescence microscopy.
For scanning electron microscopy (SEM), bacterial cells were fixed with 2.5% glutaraldehyde in PBS (pH 7.35) and attached to 12-mm cover glasses by centrifugation at 75 × g for 6 min using a Cytospin 2 centrifuge (Thermo Fisher Scientific, Schwerte, Germany). Then, cover glasses with attached bacteria were postfixed in 1% aqueous OsO4 for 30 min, dehydrated in a sequence of increasing ethanol concentrations (70%, 80%, and 100%), and critical point dried in a CPD030 (Leica Microsystems, Vienna, Austria). Next, dried samples were mounted on aluminum stubs using conductive carbon tabs, coated with 4 nm of platinum in a CCU-010 sputtering device (Safematic, Bad Ragaz, Switzerland), and imaged by a Supra 50 VP SEM at an acceleration voltage of 2 kV using the in-lens secondary electron detector (Zeiss, Oberkochen, Germany) ([53]).
For transmission electron microscopy (TEM), bacterial cells were obtained by centrifugation after overnight fixation in 2.5% glutaraldehyde (pH 7.35, in PBS) at 4°C. […]

[2] = tested on: methicillin-resistant S. aureus standard strain USA300; assay: Neutropenic mouse thigh infection model; format: in vivo; details: neutropenic BALB/c mice, 300 μg i.p. at 2 h postinfection
Method: Female BALB/c mice were used to construct a neutropenic murine thigh infection model as previously published ([48][–][50]). Briefly, mice (n = 9/group) were rendered neutropenic by consecutive intraperitoneal injections of 150 and 100 mg/kg of body weight cyclophosphamide at 4 and 1 day before bacterial injection ([51]). An S. aureus USA300 inoculum (~1.5 × 10^6 CFU/mL) was prepared by diluting logarithmic phase bacteria with fresh MHB. Each mouse was infected by intramuscular injection of 0.1 mL of the inoculum (~1.5 × 10^5 CFU) into the right thigh muscles. At 2 h postinfection, 0.1 mL of lcCCL28-25 peptide (300 μg) or vancomycin hydrochloride (300 μg, 15 mg/kg) was administered by intraperitoneal injection. The control group was injected with an equal volume of PBS. Untreated control mice were sacrificed at the start of treatment to establish the baseline bacterial burden. Mice in the three treatment groups (PBS, vancomycin, and lcCCL28-25) were sacrificed at 48 h postinfection. Their right thighs were aseptically harvested, placed in sterile saline and homogenized using a Bioprep-6 homogenizer (Allsheng, Hangzhou, China). After being serially diluted to 1:10 in sterile saline, 100-μL amounts of tissue suspensions at various concentrations were plated on LB agar to determine bacterial counts after incubation at 37°C for 24 h.

S. aureus ATCC 25923 = assay: SYTOX green membrane permeability assay; format: cell-based, Staphylococcus aureus; details: S. aureus ATCC 25923, 5 μM SYTOX green, read every 1 min
Method: The SYTOX green staining assay was performed to assess peptide-associated membrane damage ([47], [52]). E. coli ATCC 25922 and S. aureus ATCC 25923 cells in the mid-logarithmic phase were collected, washed thrice, and resuspended (5 × 10^7 CFU/mL) in buffer B (10 mM Tris-HCl, pH 7.4, at 25°C). The bacterial suspensions were mixed with 5 μM SYTOX green and incubated for 15 min at room temperature in the dark. Then, the mixtures were added to black, clear-bottom 96-well plates at a density of 100 μL/well. After peptide addition, SYTOX green uptake was monitored using an EnSpire multimode plate reader (PerkinElmer, Singapore) with an excitation wavelength of 485 nm and an emission wavelength of 520 nm. Each measurement interval was 1 min, totaling 30 to 60 times. Melittin was used as the positive control, while bovine serum albumin (BSA) was the negative control.

Gram-negative bacteria = assay: Time-kill curves (4x MIC); format: cell-based; details: 4× MIC
Method: (§1) Consistent with previous reports, time-kill curves of lcCCL28-25 against Gram-negative and Gram-positive bacteria were performed under 4× MIC conditions ([44]). Bacteria were incubated to the logarithmic growth stage. Bacterial cells in the logarithmic growth phase were diluted to achieve log(CFU/mL) values of ~5 to 6 and incubated with lcCCL28-25 for 1, 2, 4, 8, 16, 30, 60, 120, and 240 min. At each time point, 50-μL amounts of the samples were diluted to different concentrations and plated onto agar plates. After overnight incubation, the numbers of colonies on the plates were counted.

Gram-positive bacteria = assay: Time-kill curves (4x MIC); format: cell-based; details: 4× MIC
Method: as §1

CSCC[C@H](NC(=O)[C@H](Cc1c[nH]c2ccccc12)NC(=O)[C@H](CCCCN)NC(=O)[C@@H]1CCCN1C(=O)[C@H](Cc1c[nH]cn1)NC(=O)[C@H](C)N)C(=O)N[C@@H](CCC(=O)O)C(=O)N[C@H](C(=O)N[C@H](C(=O)N[C@@H](CCCNC(=N)N)C(=O)N[C@@H](CO)C(=O)N[C@@H](CCCNC(=N)N)C(=O)N[C@@H](CCC(N)=O)C(=O)N[C@@H](CCCNC(=N)N)C(=O)N[C@@H](CCCCN)C(=O)N[C@@H](CCCCN)C(=O)N[C@@H](CCCCN)C(=O)N[C@@H](Cc1c[nH]cn1)C(=O)N[C@@H](CC(N)=O)C(=O)N[C@@H](CCCCN)C(=O)N[C@@H](CCCNC(=N)N)C(=O)N[C@@H](CCCNC(=N)N)C(=O)N[C@@H](C)C(=O)N[C@H](C(=O)N[C@@H](Cc1ccc(O)cc1)C(=O)O)[C@@H](C)O)C(C)C)C(C)C [lcCCL28-25] (H-AHPKWMEVVRSRQRKKKHNKRRATY-OH; N-terminus and C-terminus assumed)
membrane structure (TEM) [1]: significant alterations in membrane structure | reduction in average bacterial load in thighs versus control group ([2]; S. aureus USA300 i.m., 48 h postinfection): 0.86 log10 CFU/g | mice that died after 48 h of infection ([2]; n = 9/group, three died in PBS group): one | SYTOX green fluorescence intensity (S. aureus ATCC 25923): increased rapidly within 20 min | time for CFU counts to be reduced by more than half (Gram-negative bacteria): more than 1 h | time for CFU counts to be reduced by more than half (Gram-positive bacteria): ≤ 10 min
